The assay has as its target histidine-tagged recombinant human TrkA, cytoplasmic domain (Homo sapiens (Human), UniProt P04629). Nature of the assay: TrkA ELISA Assay. It is filed as biochemical. The note with it: 2.5 nM TrkA, 500 μM ATP; read-out: TrkA Elisa Enzyme IC50. How it is done: An enzyme-linked immunosorbant assay (ELISA) was used to assess TrkA kinase activity in the presence of inhibitors. Immulon 4HBX 384-well microtiter plates (Thermo part #8755) were coated with a 0.025 mg/mL solution of poly (Glu, Ala, Tyr; 6:3:1; Sigma P3899). Various concentrations of test compound, 2.5 nM TrkA (Invitrogen Corp., histidine-tagged recombinant human TrkA, cytoplasmic domain), and 500 μM ATP were incubated for 25 minutes at ambient temperature in the coated plates while shaking. The assay buffer consisted of 25 mM MOPS pH 7.5, 0.005% (v/v) Triton X-100 and 5 mM MgCl2. The reaction mixture was removed from the plate by washing with PBS containing 0.1% (v/v) Tween 20. The phosphorylated reaction product was detected using 0.2 μg/mL of a phosphotyrosine specific monoclonal antibody (clone PY20) conjugated to horseradish peroxidase in conjunction with the TMB Peroxidase Substrate System (KPL). After the addition of 1M phosphoric acid, the chromogenic substrate color intensity was quantitated via absorbance at 450 nm. IC50 values were calculated using either a 4 or 5-parameter logistic curve fit.

histidine-tagged recombinant human TrkA, cytoplasmic domain, sequence (P04629 440-796): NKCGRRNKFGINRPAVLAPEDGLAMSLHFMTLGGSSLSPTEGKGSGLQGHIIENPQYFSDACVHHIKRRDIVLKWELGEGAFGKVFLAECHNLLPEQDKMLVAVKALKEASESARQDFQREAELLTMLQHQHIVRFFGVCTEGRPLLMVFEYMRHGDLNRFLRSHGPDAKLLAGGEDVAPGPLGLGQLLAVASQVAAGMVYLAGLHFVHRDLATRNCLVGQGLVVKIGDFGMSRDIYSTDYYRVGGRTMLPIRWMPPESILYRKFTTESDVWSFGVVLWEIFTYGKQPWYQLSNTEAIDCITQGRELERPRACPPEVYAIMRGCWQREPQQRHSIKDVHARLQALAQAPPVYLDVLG

Consider `COc1ccc(F)cc1[C@H]1CCCN1c1ccn2ncc(NC(=O)N3CCC[C@H](O)C3)c2n1` [Example 91, (S)—N-(5-((R)-2-(5-fluoro-2-methoxyphenyl)pyrrolidin-1-yl)pyrazolo[1,5-a]pyrimidin-3-yl)-3-hydroxypiperidine-1-carboxamide], for which the IC50 (as a rule, the point on the concentration scale where inhibition reaches its midpoint) was 10.2 nM.

(Values after patent US10774085B2, “Method of treatment using substituted pyrazolo[1,5-A] pyrimidine compounds” (Array BioPharma Inc., priority 2008, dated 2020).)
